In data set [1] the target is T1, human adenosine A1R (Homo sapiens, UniProt P30542).
T1 construct: expressed in transfected cells; host or cells: CHO cells
T1 sequence (P30542 1-326): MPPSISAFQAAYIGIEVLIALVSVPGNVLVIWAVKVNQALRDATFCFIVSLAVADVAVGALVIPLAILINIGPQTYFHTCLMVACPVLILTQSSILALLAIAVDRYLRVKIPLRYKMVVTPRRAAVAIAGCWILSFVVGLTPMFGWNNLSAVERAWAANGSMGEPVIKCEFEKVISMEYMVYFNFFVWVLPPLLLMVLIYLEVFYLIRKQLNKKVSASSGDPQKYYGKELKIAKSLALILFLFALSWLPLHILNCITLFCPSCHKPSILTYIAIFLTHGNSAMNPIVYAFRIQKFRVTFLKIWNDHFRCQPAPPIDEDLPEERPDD
The settings on record: cited from earlier work; for Ki: human.

For data set [2], the target named is T2, human adenosine A2AR (Homo sapiens, UniProt P29274).
T2 construct: expressed in transfected cells; host or cells: CHO cells
As to conditions: cited from earlier work.

Data set [3] concerns the target other adenosine receptors. The settings on record: cited from earlier work.
Data set [4] deals with carrageenan-induced edema in rats. Also noted: method as in PMID 32629282. As to conditions: 20 mg/kg ip; cited from earlier work.
Data set [5] has as its target T3, human adenosine A2BR (Homo sapiens, UniProt P29275).
T3 construct: expressed in transfected cells; host or cells: CHO cells
T3 sequence (P29275 1-332): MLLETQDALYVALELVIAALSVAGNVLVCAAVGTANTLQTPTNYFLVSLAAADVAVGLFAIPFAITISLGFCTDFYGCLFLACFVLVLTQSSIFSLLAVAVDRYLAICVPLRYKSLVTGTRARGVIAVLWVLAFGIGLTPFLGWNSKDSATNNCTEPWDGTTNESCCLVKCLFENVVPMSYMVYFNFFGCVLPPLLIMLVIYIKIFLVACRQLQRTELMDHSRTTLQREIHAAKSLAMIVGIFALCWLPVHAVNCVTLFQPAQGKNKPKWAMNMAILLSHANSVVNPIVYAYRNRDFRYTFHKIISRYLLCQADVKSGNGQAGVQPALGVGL
The arrangement: method as in PMID 32629282. The settings on record: cited from earlier work.

The target in data set [6] is T4, human adenosine A3R (Homo sapiens, UniProt P0DMS8).
T4 construct: expressed in transfected cells; host or cells: CHO cells
T4 sequence (P0DMS8 1-318): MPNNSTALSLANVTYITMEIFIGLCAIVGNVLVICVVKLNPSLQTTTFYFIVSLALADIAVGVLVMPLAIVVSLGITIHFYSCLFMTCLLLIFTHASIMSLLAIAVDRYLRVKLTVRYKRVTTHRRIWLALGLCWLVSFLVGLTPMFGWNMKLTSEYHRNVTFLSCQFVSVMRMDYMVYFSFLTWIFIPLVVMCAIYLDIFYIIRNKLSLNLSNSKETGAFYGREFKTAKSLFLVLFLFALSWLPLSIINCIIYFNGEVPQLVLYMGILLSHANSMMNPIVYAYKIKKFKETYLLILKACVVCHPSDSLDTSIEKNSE
The arrangement: method as in PMID 32629282. As to conditions: cited from earlier work.

On the set-up of data set [7]: method as in PMID 21235574. The settings on record: animal studies; cited from earlier work.
On the set-up of data set [8]: method as in PMID 30254599. As to conditions: LPD and ibotenate models; cited from earlier work.
Data set [9] addresses T1, human adenosine A1R. In words: Radioligand binding at human adenosine A1 receptor vs. [3H]CCPA. As to conditions: for inhibition at 1 µM: CHO cells, read-out: A1R vs. [³H]CCPA % Inhibition ± SEM at 1 µM; for Ki: human recombinant receptor in CHO cells, read-out: A1R vs. [³H]CCPA Ki ± SEM. How it is done: (§1) Affinities for adenosine receptors were evaluated in radioligand binding assays as previously described. Human adenosine receptors were stably expressed in CHO cells. The following radioligands were used: [^3H]2-chloro-N^6-cyclopentyladenosine ([^3H]CCPA) for A1R; [^3H]3-(3-hydroxypropyl)-7-methyl-8-(m-methoxystyryl)-1-propargylxanthine ([^3H]MSX-2) for A2AR; [^3H]8-(4-(4-(4-chlorophenyl)piperazine-1-sulfonyl)phenyl)-1-propylxanthine ([^3H]PSB-603) for A2BR; [^3H]phenyl-8-ethyl-4-methyl-(8R)-4,5,7,8-tetrahydro-1H-imidazo [2,1-i]purine-5-one ([^3H]PSB-11) for A3R. Initially, compounds were tested at a concentration of 1 µM. […] At least three independent experiments were performed. Data were analyzed using GraphPad PRISM version 5.0 or higher (Graph Pad, San Diego, CA, USA). Ki were calculated using the Cheng–Prusoff equation.

In data set [10] the target is T2, human adenosine A2AR. In words: Radioligand binding at human adenosine A2A receptor vs. [3H]MSX-2. The settings on record: human recombinant receptor in CHO cells; read-out: A2AR vs. [³H]MSX-2 Ki ± SEM. The procedure:
as §1

Data set [11] deals with T3, human adenosine A2BR. In words: Radioligand binding at human adenosine A2B receptor vs. [3H]PSB-603. The settings on record: for inhibition at 1 µM: CHO cells, read-out: A2BR vs. [³H]PSB-603 % Inhibition ± SEM at 1 µM; for Ki: human recombinant receptor in CHO cells, read-out: A2BR vs. [³H]PSB-603 Ki ± SEM. How it is done: as §1
The target of data set [12] is T4, human adenosine A3R. In words: Radioligand binding at human adenosine A3 receptor vs. [3H]PSB-11. The settings on record: for inhibition at 1 µM: CHO cells, read-out: A3R vs. [H³]PSB-11 % Inhibition ± SEM at 1 µM; for Ki: human recombinant receptor in CHO cells, read-out: A3R vs. [H³]PSB-11 Ki ± SEM. The procedure:
as §1

Data set [13] has as its target T5, human MAO B (Homo sapiens, UniProt P27338).
T5 sequence (P27338 1-520): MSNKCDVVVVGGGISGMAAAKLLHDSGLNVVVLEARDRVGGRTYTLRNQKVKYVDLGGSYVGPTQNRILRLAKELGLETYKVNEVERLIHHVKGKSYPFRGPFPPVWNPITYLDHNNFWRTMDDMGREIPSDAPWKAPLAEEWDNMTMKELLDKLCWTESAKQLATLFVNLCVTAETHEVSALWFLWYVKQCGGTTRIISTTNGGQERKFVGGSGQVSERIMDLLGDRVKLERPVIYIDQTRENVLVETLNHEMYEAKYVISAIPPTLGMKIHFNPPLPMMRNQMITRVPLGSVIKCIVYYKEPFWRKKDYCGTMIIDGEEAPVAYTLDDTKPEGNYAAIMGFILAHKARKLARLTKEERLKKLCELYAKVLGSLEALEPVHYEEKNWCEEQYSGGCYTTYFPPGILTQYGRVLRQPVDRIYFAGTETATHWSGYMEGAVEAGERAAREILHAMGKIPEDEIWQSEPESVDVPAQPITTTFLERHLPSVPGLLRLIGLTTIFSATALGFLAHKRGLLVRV
In words: Human MAO B inhibition, fluorometric method. The data set is classed as biochemical. The settings on record: mean of two independent experiments, read-out: % of hMAO B Inhibition at 1 µM. The procedure: The compounds were tested twice in duplicates at a concentration of 1 μM by fluorometric method as previously described. Paratyramine (200 μM) was used as a substrate for the enzyme. Safinamide (1 μM; reversible) and rasagiline (1 μM; irreversible) were used as reference inhibitors.

The subject of data set [14] is carrageenan-induced edema in mice. Also noted: method as in PMID 25735490. The settings on record: 100 mg/kg ip, cited from earlier work.
A short description of data set [15]: PAMPA blood brain barrier permeability. In kind it is in vitro ADME. How it is done: The ability of compounds, especially those intended to act in the CNS, to penetrate the blood-brain barrier (BBB) is an important property to consider in the initial stages of drug candidate screening. The PAMPA assay is a commonly used test to assess the passive permeation of the BBB [17]. In our study, caffeine was used as a highly permeable compound. […] After 5 h of incubation at room temperature, the results were analyzed by LC-MS, and the permeability coefficients (Pe) were calculated.
For permeability evaluation, a PAMPA Gentest™ pre-coated […] system, provided by Corning (Tewksbury, MA, USA), was used. The precise procedure was previously described. The permeability coefficient Pe was calculated based on the given equations. Concentrations of the tested compounds in the apical and basolateral wells were determined by LC/MS analysis using an internal standard.
(In PAMPA a lipid-coated filter parts donor from acceptor wells.)

The mark [16] stands for this setting: selectivity towards other adenosine receptors.

Where two headings read alike, the source gives them in different places.

T2 sequence (P29274 whole entry): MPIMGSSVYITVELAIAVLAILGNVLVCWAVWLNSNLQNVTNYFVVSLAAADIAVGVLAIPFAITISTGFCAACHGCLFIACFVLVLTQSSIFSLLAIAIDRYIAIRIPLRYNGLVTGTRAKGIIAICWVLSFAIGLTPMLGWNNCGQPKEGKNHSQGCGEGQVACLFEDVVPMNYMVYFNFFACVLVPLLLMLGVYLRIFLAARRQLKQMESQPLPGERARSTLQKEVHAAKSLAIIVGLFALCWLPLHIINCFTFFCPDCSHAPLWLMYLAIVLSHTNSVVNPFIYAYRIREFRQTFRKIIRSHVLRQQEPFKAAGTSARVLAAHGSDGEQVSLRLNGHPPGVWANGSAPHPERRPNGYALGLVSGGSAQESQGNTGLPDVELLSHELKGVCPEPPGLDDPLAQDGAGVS

As usually defined, the Ki is a dissociation constant, usually derived from enzyme kinetics or from competition with a known ligand. On to `CCn1c(=O)c2c(nc(NCc3cccc(OC)c3F)n2C)n(C)c1=O` [compound 1], for which the figures for the inhibition constant Ki in data set [1] (read-out: hA1R Ki), in data set [2] (read-out: A2AR Ki) and in [3] (setting [16]) were more than 1000 nM, 69 nM and more than 1000 nM, respectively. Besides, the “inhibition of edema, 2nd hour” value in data set [4] is recorded as 44%. Moreover, in data set [4], the “inhibition of edema, 3rd hour” value was 53%.

For `CCn1c(=O)c2c(nc(NCc3ccccc3Cl)n2C)n(C)c1=O` [compound 2], the “A1R % Inhibition ± SEM at 1 µM” value in data set [1] (1 µM) was 22 ± 1%. Further, the Ki in [1] (read-out: A1R Ki) was more than 1000 nM; in data set [2] (read-out: A2AR Ki), 71 ± 6 nM; in data set [5] (human), more than 1000 nM; in data set [6] (human), more than 1000 nM; in [3] it was more than 1000 nM. Further, the “A2BR % Inhibition ± SEM at 1 µM” value in data set [5] (1 µM) is given as 44 ± 10%. The “A3R % Inhibition ± SEM at 1 µM” value in data set [6] (1 µM) was 14 ± 1%.

`Nc1nc2c(cnn2CCc2ccccc2)c2nc(-c3ccco3)nn12` [SCH-58261]: the “effect in LPS-induced inflammation model (in words)” value in data set [7] is listed as “beneficial effects”. The “effect on pro-inflammatory factors (IL-1ß, IL-6, iNOS, TNF alpha) (in words)” value in [8] is listed as “caused a decrease in the above-mentioned cytokines”.

As usually defined, the inhibition is the drop in the measured response relative to a control, in per cent. In general, melting point refers to the temperature, or range, at which the solid turns liquid. The molecule `CCCn1c(=O)c2c(nc(NCc3cccc(Cl)c3)n2C)n(C)c1=O` [compound 15, 8-((3-Chlorobenzyl)amino)-3,7-dimethyl-1-propyl-3,7-dihydro-1H-purine-2,6-dione] yielded a melting point of 185 to 187 °C. For the same molecule, in data set [9], the inhibition at 1 µM is 40% and the Ki was more than 1000 nM. Besides, the inhibitory constant (Ki) in [10] turned out to be 588 ± 74 nM. For the same molecule, in data set [11], the inhibition at 1 µM came out at 34% and the inhibition constant (Ki) was more than 1000 nM. For the same molecule, in data set [12], the inhibition at 1 µM stood at 0% and the Ki was more than 1000 nM. Besides, the inhibition at 1 µM in [13] came to 10%.

As to `Cn1c(=O)c2c(nc3n2CCCN3CCc2ccc(O)cc2)n(C)c1=O` [KD-114], the Ki was more than 25000 nM in data set [1] (read-out: hA1R Ki), 230 nM in data set [2] (read-out: hA2AR Ki) and more than 1000 nM in data set [3] (setting [16]). Besides, in data set [14] (1st, 2nd and 3rd hour), the “reduction of edema volume” value is reported as more than 90%. The “edema at the first hour with the tested compound” value in [14] (control 64%) is 2%.

`CCCn1c(=O)c2c(nc(NCc3ccccc3Cl)n2C)n(C)c1=O` [compound 5, 8-((2-Chlorobenzyl)amino)-3,7-dimethyl-1-propyl-3,7-dihydro-1H-purine-2,6-dione] had a melting point of 190 to 191 °C. Moreover, in [9], the inhibition at 1 µM was determined as 26% and the inhibition constant (Ki) is more than 1000 nM. Moreover, in data set [10], the Ki came to 302 ± 34 nM. For the same molecule, in data set [11], the Ki is 832 ± 133 nM. In data set [12], the inhibition at 1 µM was 4% and the Ki is more than 1000 nM. The inhibition at 1 µM in data set [13] stood at 8%.

`C#CCn1c(=O)c2c(nc(NCc3cccc(Cl)c3)n2C)n(C)c1=O` [compound 23, 8-((3-Chlorobenzyl)amino)-3,7-dimethyl-1-(prop-2-yn-1-yl)-3,7-dihydro-1H-purine-2,6-dione] registered a melting point of 234 to 236 °C. In data set [9], the Ki is 334 ± 122 nM. Further, the inhibition constant (Ki) in [10] amounted to 126 ± 15 nM. Also, in data set [11], the inhibition at 1 µM is 26% and the Ki is more than 1000 nM. Besides, in data set [12], the inhibition at 1 µM amounted to 14% and the Ki is more than 1000 nM. The inhibition at 1 µM in [13] was 8%.

`C#CCn1c(=O)c2c(nc(NCc3ccccc3F)n2C)n(C)c1=O` [compound 21, 8-((2-Fluorobenzyl)amino)-3,7-dimethyl-1-(prop-2-yn-1-yl)-3,7-dihydro-1H-purine-2,6-dione] displayed a melting point of 224 to 226 °C. Besides, in [9], the Ki stood at 353 ± 42 nM. Further, in data set [10], the inhibition constant Ki stood at 287 ± 90 nM. In [11], the inhibition at 1 µM was determined as 41% and the Ki was more than 1000 nM. Besides, in [12], the inhibition at 1 µM was determined as 21% and the Ki is more than 1000 nM. Besides, the inhibition at 1 µM in data set [13] came out at 8%.

With `Cn1c(=O)c2c(ncn2C)n(C)c1=O` [Caffeine, reference compound], the “Drug Retention” value in [15] worked out at 29.46%. In addition, the Papp at 5 h, 100 μM in data set [15] (100 μM in PBS, 5 h, room temperature, triplicate, read-out: Pe ± SD) is 6.57 ± 1.57 ×10⁻⁶ cm/s; in data set [15] (read-out: Permeable), not below 1.5 ×10⁻⁶ cm/s.

The values are drawn from PMC10531311, “Anti-Inflammatory Activities of 8-Benzylaminoxanthines Showing High Adenosine A2A and Dual A1/A2A Receptor Affinity” (International Journal of Molecular Sciences, 2023).
